In patent US11596692B1 (Incyte Corporation, priority 2018, dated 2023):
Like-named read-outs stand apart in the source and are kept apart here.

System: IRF3
Assay: IRF3 activation assay in THP-1 Dual cells
Format: cell-based
Conditions: Homo sapiens, read-out: THP1 IRF3 EC50
Procedure: THP-1 Dual Cells (Invivogen) were maintained in RPMI1640 medium with addition of 10% FBS, 100 μg/ml zeocin, 10 μg/ml blasticidin. Cells were added in a 96-well flat bottom assay plate at 100,000 per well in 100 μL complete RPMI medium. Test compounds were prepared by serial dilution in complete RPMI medium and 100 μL test compounds were transferred to each corresponding well. The assay plate was incubated at 37° C., 5% CO2 for 24 hours. After the overnight incubation, 20 μL of the culture supernatants were collected, followed by addition of 180 μL of QUANTI-Blue (Invivogen) to assess IRF3 activity. The amount of IRF3 activation was assessed by reading the absorbance at 620-655 nm with a microplate reader 2 hours later. The culture supernatant from the untreated THP-1 cells was used as the negative control. EC50 determination was performed by fitting the curve of percent control activity versus the log of the compound concentration using the GraphPad Prism 6.0 software.

EC50 (THP-1, Table 4A) [nM] | EC50 (THP-1, Table 4B) [nM] | EC50 (THP-1, Table 4C) [nM] | Structure (SMILES)
≤ 100 |  |  | CCn1nc(C)cc1C(=O)Nc1nc2cc(C(N)=O)cc(OCCCOC(=O)NCCC(=O)O)c2n1C/C=C/Cn1c(NC(=O)c2cc(C)nn2CC)nc2cc(C(N)=O)c3ccoc3c21 [Example S66, (E)-3-(((3-((5-carbamoyl-1-(4-(5-carbamoyl-2-(1-ethyl-3-methyl-1H-pyrazole-5-carboxamido)-1H-benzofuro[6,7-d]imidazol-1-yl)but-2-en-1-yl)-2-(1-ethyl-3-methyl-1H-pyrazole-5-carboxamido)-1H-benzo[d]imidazol-7-yl)oxy)propoxy)carbonyl)amino)propanoic acid]
100 to 500 | < 1000 |  | CCn1nc(C)cc1C(=O)Nc1nc2cc(C(N)=O)cc(C)c2n1C/C=C/Cn1c2ccc(C(N)=O)cc2c2cnc(-c3cc(C)nn3C)nc21 [Example S3, (E)-9-(4-(5-carbamoyl-2-(1-ethyl-3-methyl-1H-pyrazole-5-carboxamido)-7-methyl-1H-benzo[d]imidazol-1-yl)but-2-enyl)-2-(1,3-dimethyl-1H-pyrazol-5-yl)-9H-pyrimido[4,5-b]indole-6-carboxamide]
 |  | ≤ 50 | CCn1nc(C)cc1C(=O)Nc1nc2cc(C(N)=O)cc(OCCCNC(=O)OCCC(=O)O)c2n1C/C=C/Cn1c2nc(-c3cc(C)nn3CC)ncc2c2cc(C(N)=O)cc(OCCCOC)c21 [Example S44, (E)-3-(((3-((5-carbamoyl-1-(4-(6-carbamoyl-2-(1-ethyl-3-methyl-1H-pyrazol-5-yl)-8-(3-methoxypropoxy)-9H-pyrimido[4,5-b]indol-9-yl)but-2-en-1-yl)-2-(1-ethyl-3-methyl-1H-pyrazole-5-carboxamido)-1H-benzo[d]imidazol-7-yl)oxy)propyl)carbamoyl)oxy)propanoic acid]
 |  | 200 to 500 | CCn1nc(C)cc1C(=O)Nc1nc2cc(C(N)=O)cc(OCCCNC(=O)[C@H](CC(=O)O)NC(=O)[C@H](CC(=O)O)NC(=O)[C@H](CCCNC(=N)N)NC(=O)[C@@H](N)CC(=O)O)c2n1C/C=C/Cn1c2nc(-c3cc(C)nn3CC)ncc2c2cc(C(N)=O)cc(OCCCOC)c21 [Example S42]
≤ 100 | < 200 | ≤ 50 | CCn1nc(C)cc1C(=O)Nc1nc2cc(C(N)=O)cc(C)c2n1C/C=C/Cn1c2nc(-c3cc(C)nn3CC)ncc2c2cc(C(N)=O)cc(OC)c21 [Example S10, (E)-9-(4-(5-carbamoyl-2-(1-ethyl-3-methyl-1H-pyrazole-5-carboxamido)-7-methyl-1H-benzo[d]imidazol-1-yl)but-2-enyl)-2-(1-ethyl-3-methyl-1H-pyrazol-5-yl)-8-methoxy-9H-pyrimido[4,5-b]indole-6-carboxamide]
≤ 100 |  |  | CCn1nc(C)cc1-c1ncc2c3cc(C(N)=O)cc(OC)c3n(C/C=C/Cn3c4nc(-c5cc(C)nn5CC)ncc4c4cc(C(N)=O)cc(OC)c43)c2n1 [Example S29, (E)-9,9′-(but-2-ene-1,4-diyl)bis(2-(1-ethyl-3-methyl-1H-pyrazol-5-yl)-8-methoxy-9H-pyrimido[4,5-b]inclole-6-carboxamide)]
 |  | ≤ 50 | CCn1nc(C)cc1C(=O)Nc1nc2cc(C(N)=O)cc(OC)c2n1C/C=C/Cn1c2nc(-c3cc(C)nn3CC)ncc2c2cc(C(N)=O)cc(OCCCNC(=O)OCCC(=O)O)c21 [Example S52, (E)-3-(3-(6-carbamoyl-9-(4-(5-carbamoyl-2-(1-ethyl-3-methyl-1H-pyrazole-5-carboxamido)-7-methoxy-1H-benzo[d]imidazol-1-yl)but-2-enyl)-2-(1-ethyl-3-methyl-1H-pyrazol-5-yl)-9H-pyrimido[4,5-b]indol-8-yloxy)propylcarbamoyloxy)propanoic acid]
500 to 1000 | < 1000 | 50 to 200 | CCn1nc(C)cc1C(=O)Nc1nc2cc(C(N)=O)cc(C)c2n1C/C=C/Cn1c2ccc(C(N)=O)cc2c2cnc(-c3cc(C)nn3CC)nc21 [Example S1, (E)-9-(4-(5-carbamoyl-2-(1-ethyl-3-methyl-1H-pyrazole-5-carboxamido)-7-methyl-1H-benzo[d]imidazol-1-yl)but-2-enyl)-2-(1-ethyl-3-methyl-1H-pyrazol-5-yl)-9H-pyrimido[4,5-b]indole-6-carboxamide]
 |  | 50 to 200 | CCn1nc(C)cc1C(=O)Nc1nc2cc(C(N)=O)cc(OC(C)C)c2n1C/C=C/Cn1c2nc(-c3cc(C)nn3CC)ncc2c2cc(C(N)=O)cc(OCCCOC)c21 [Example S35, (E)-9-(4-(5-carbamoyl-2-(1-ethyl-3-methyl-1H-pyrazole-5-carboxamido)-7-isopropoxy-1H-benzo[d]imidazol-1-yl)but-2-en-1-yl)-2-(1-ethyl-3-methyl-1H-pyrazol-5-yl)-8-(3-methoxypropoxy)-9H-pyrimido[4,5-b]indole-6-carboxamide]
 |  | 50 to 200 | CCn1nc(C)cc1C(=O)Nc1nc2cc(C(N)=O)cc(OCCN3CCOCC3)c2n1C/C=C/Cn1c2nc(-c3cc(C)nn3CC)ncc2c2cc(C(N)=O)cc(OCCCOC)c21 [Example S43, (E)-9-(4-(5-carbamoyl-2-(1-ethyl-3-methyl-1H-pyrazole-5-carboxamido)-7-(2-morpholinoethoxy)-1H-benzo[d]imidazol-1-yl)but-2-en-1-yl)-2-(1-ethyl-3-methyl-1H-pyrazol-5-yl)-8-(3-methoxypropoxy)-9H-pyrimido[4,5-b]indole-6-carboxamide]
≤ 100 | < 200 | ≤ 50 | CCn1nc(C)cc1C(=O)Nc1nc2cc(C(N)=O)cc(OCCCO)c2n1C/C=C/Cn1c2nc(-c3cc(C)nn3CC)ncc2c2cc(C(N)=O)cc(OCCCOC)c21 [Example S22, (E)-9-(4-(5-carbamoyl-2-(1-ethyl-3-methyl-1H-pyrazole-5-carboxamido)-7-(3-hydroxypropoxy)-1H-benzo[d]imidazol-1-yl)but-2-en-1-yl)-2-(1-ethyl-3-methyl-1H-pyrazol-5-yl)-8-(3-methoxypropoxy)-9H-pyrimido[4,5-b]indole-6-carboxamide]
 |  | ≤ 50 | CCn1nc(C)cc1C(=O)Nc1nc2cc(C(N)=O)cc(OCCCOC)c2n1C/C=C/Cn1c2nc(-c3cc(C)nn3CC)ncc2c2cc(C(N)=O)cc(OCCCNC(=O)OCCC(=O)O)c21 [Example S56, (E)-3-(3-(6-carbamoyl-9-(4-(5-carbamoyl-2-(1-ethyl-3-methyl-1H-pyrazole-5-carboxamido)-7-(3-methoxypropoxy)-1H-benzo[d]imidazol-1-yl)but-2-enyl)-2-(1-ethyl-3-methyl-1H-pyrazol-5-yl)-9H-pyrimido[4,5-b]indol-8-yloxy)propylcarbamoyloxy)propanoic acid]
≤ 100 | < 200 | ≤ 50 | CCn1nc(C)cc1C(=O)Nc1nc2cc(C(N)=O)cc(OCCCO)c2n1C/C=C/Cn1c2nc(-c3cc(C)nn3CC)ncc2c2cc(C(N)=O)cc(OC)c21 [Example S16, (E)-9-(4-(5-carbamoyl-2-(1-ethyl-3-methyl-1H-pyrazole-5-carboxamido)-7-(3-hydroxypropoxy)-1H-benzo[d]imidazol-1-yl)but-2-en-1-yl)-2-(1-ethyl-3-methyl-1H-pyrazol-5-yl)-8-methoxy-9H-pyrimido[4,5-b]indole-6-carboxamide]
 |  | ≤ 50 | CCn1nc(C)cc1C(=O)Nc1nc2cc(C(N)=O)cc(OCCCO)c2n1C/C=C/Cn1c2nc(-c3cc(C)nn3CC)ncc2c2cc(C(N)=O)cc(OCCCNC(=O)CCCC(=O)O)c21 [Example S53, (E)-5-(3-(6-carbamoyl-9-(4-(5-carbamoyl-2-(1-ethyl-3-methyl-1H-pyrazole-5-carboxamido)-7-(3-hydroxypropoxy)-1H-benzo[d]imidazol-1-yl)but-2-enyl)-2-(1-ethyl-3-methyl-1H-pyrazol-5-yl)-9H-pyrimido[4,5-b]indol-8-yloxy)propylamino)-5-oxopentanoic acid]
100 to 500 | < 200 | 50 to 200 | CCn1nc(C)cc1C(=O)Nc1nc2cc(C(N)=O)cc(C)c2n1C/C=C/Cn1c2ccc(C(N)=O)cc2c2cnc(-c3cc(C)nn3CC)c(F)c21 [Example S23, (E)-5-(4-(5-carbamoyl-2-(1-ethyl-3-methyl-1H-pyrazole-5-carboxamido)-7-methyl-1H-benzo[d]imidazol-1-yl)but-2-en-1-yl)-3-(1-ethyl-3-methyl-1H-pyrazol-5-yl)-4-fluoro-5H-pyrido[4,3-b]indole-8-carboxamide]
≤ 100 | < 200 | ≤ 50 | CCCn1nc(C)cc1-c1ncc2c3cc(C(N)=O)ccc3n(C/C=C/Cn3c(NC(=O)c4cc(C)nn4CC)nc4cc(C(N)=O)cc(C)c43)c2n1 [Example S6, (E)-9-(4-(5-carbamoyl-2-(1-ethyl-3-methyl-1H-pyrazole-5-carboxamido)-7-methyl-1H-benzo[d]imidazol-1-yl)but-2-enyl)-2-(3-methyl-1-propyl-1H-pyrazol-5-yl)-9 H-pyrimido[4,5-b]indole-6-carboxamide]
≤ 100 |  |  | CCn1nc(C)cc1C(=O)Nc1nc2cc(C(N)=O)c3ccoc3c2n1C/C=C/Cn1c2nc(-c3cc(C)nn3CC)ncc2c2cc(C(N)=O)cc(OC)c21 [Example S67, (E)-1-(4-(6-carbamoyl-2-(1-ethyl-3-methyl-1H-pyrazol-5-yl)-8-methoxy-9H-pyrimido[4,5-b]indol-9-yl)but-2-en-1-yl)-2-(1-ethyl-3-methyl-1H-pyrazole-5-carboxamido)-1H-benzofuro[6,7-d]imidazole-5-carboxamide]
